Experimental data as given in patent publication US20070232694A1, “SKIN CLEANSER” (priority 2006, published 2007).

Assays:
[1] = test system: ATCC 29213 (MSSA) and ATCC 43330 (MRSA); assay: Petri dish (Mueller-Hinton agar) drop test, zones of inhibition vs controls; assay type: cell-based, Staphylococcus aureus; settings: for order of anti-bacterial effectiveness: at a given concentration
Protocol: Testing was conducted at a pathology laboratory certified for microbiology testing by a physician and a microbiologist. A double blind, randomized controlled experiment was conducted to evaluate the surfactant compounds against bacteria in Petri dishes.
Bacterial strain: Two well characterized strains of methicillin-sensitive Staphylococcus aureus (MSSA) and methicillin-resistant Staphylococcus aureus (MRSA) were used. Specifically, experiments used ATCC 29213 (MSSA) and ATCC 43330 (MRSA), both beta-lactamase positive strains, which represent greater than 90% of the respective strains in the American population.
Petri dish preparation: A sterile cotton swab (American Scientific Products, McGraw Park, Ill.) was dipped into the cultures and used to swab the entire surface of 150×15 mm Petri dishes containing 75 ml of standard Mueller-Hinton agar. Two Petri dishes were inoculated with ATCC 29213 (MSSA and two Petri dishes with ATCC 43330 (MRSA). One Petri dish of each group (MSSA and MRSA) was set aside as the controls. The other two Petri dishes (MSSA and MRSA) were divided up in quadrants, and each quadrant was labeled B, C, D or E.
Cleanser compositions were prepared as follows: A surfactant solution containing about 10% by volume of sodium dodecylbenzenesulfonate was prepared. An aqueous stock solution containing 0.5% by volume sodium hypochlorite and 0.5% by volume abrasive (calcium carbonate and sodium carbonate) was prepared. The surfactant solution and stock solution were mixed in various ratios to produce four skin cleanser solutions having four different surfactant concentrations of 0.5%, 1%, 2% and 8%, by volume. The amount of sodium hypochlorite, calcium carbonate and sodium carbonate in each of the four skin cleanser solutions was less than 1% concentration by volume.
Cleanser Testing: Four samples of the cleanser with the four different concentrations of the surfactant (0.5%, 1%, 2% and 8%) were placed into four separate, unmarked bottles. Each bottle was randomly labeled (B, C, D, or E), and the microbiologist conducting the study was unaware of any difference between the solutions.
Application: Holding each bottle vertically, the microbiologist added a single drop from each bottle (B, C, D, or E) to the corresponding quadrant of the labeled Petri dish. All four Petri dishes were placed in an incubator overnight at 37 degrees Celsius, and examined 20 hours later. Petri dishes were compared to the corresponding controls, and zones of inhibition were characterized by the largest point of diameter of the circle or oval.
Four cleanser compositions were prepared and tested in the manner described in Example 1, except that each cleanser contained a different anionic surfactant. […]

mycobacteria marinum = assay: Finger infection, patient case; assay type: in vivo, human; settings: after eleven days of antibiotics
Protocol: Action against Mycobacteria: A person with four month long history of an infection on the posterior aspect of their right ring finger was treated. The infected areas were culture positive for mycobacteria marinum, with symptoms of infection resulting in a 4 cm long patchy zone of erythema, induration, and oozing from the wound. After failing two full courses of oral antibiotics, over the previous four months, the patient was given a third round of antibiotics, this time Clarythromycin, after their finger's condition had worsened.

Enterococcus = assay: Infected decubitus ulcer, patient case; assay type: in vivo, human; settings: on antibiotics, five days after admission
Text: Action against Gram-positives such as Enterococcus: A person with long history of diabetes was admitted from their hospice care home to an acute care facility hospital secondary to an infected decubitus ulcer (bedsore). This patient's sacral ulcer tested positive from culture swab for Enterococcus, a common Gram-positive bacterium for infecting bedsores. Immediately upon admission, the patient was placed on antibiotics (ciprofloxacin). […] On day five, the treating physician directly cultured the wound again with two cotton swabs. Cotton swab #1, the control, was placed directly in the sealed container based on hospital protocol. Cotton swab #2 was placed into the sealed container, but one single vertical drop of a cleanser solution (prepared as described in Example 1). Both swabs were sent to the lab and a count of colony-forming units (CFUs) ordered.

| Compound | order of anti-bacterial effectiveness [1] | further results |
| --- | --- | --- |
| OCl [Sodium hypochlorite] |  | effect on anti-bacterial action of sodium dodecylbenzenesulfonate ([1]; synergy of action): potentiated |
| C[C@H](CCC(=O)[O-])[C@H]1CC[C@H]2[C@@H]3[C@H](O)C[C@@H]4C[C@H](O)CC[C@]4(C)[C@H]3C[C@H](O)[C@]12C.[Na+] [sodium cholate] | sodium dodecylbenzenesulfonate >N-lauroylsarcosine sodium salt >sodium cholate, sodium deoxycholate |  |
| sodium deoxycholate | sodium dodecylbenzenesulfonate >N-lauroylsarcosine sodium salt >sodium cholate, sodium deoxycholate |  |
| CCCCCCCCCCCC(=O)N(C)CC(=O)[O-].[Na+] [N-lauroylsarcosine sodium salt] | sodium dodecylbenzenesulfonate >N-lauroylsarcosine sodium salt >sodium cholate, sodium deoxycholate |  |
| CC[C@H]1OC(=O)[C@H](C)[C@@H](O[C@H]2C[C@@](C)(OC)[C@@H](O)[C@H](C)O2)[C@H](C)[C@@H](O[C@@H]2O[C@H](C)C[C@H](N(C)C)[C@H]2O)[C@](C)(OC)C[C@@H](C)C(=O)[C@H](C)[C@@H](O)[C@]1(C)O [Clarythromycin] |  | symptoms of infection (mycobacteria marinum): no change in symptoms |
| O=C(O)c1cn(C2CC2)c2cc(N3CCNCC3)c(F)cc2c1=O [ciprofloxacin] |  | course of ulcer (Enterococcus): signs of worsening |
